Reference: ChEMBL document CHEMBL3046483, “Novel 2'-hydroxylfurylchalcones: synthesis and biological activity” (2010)
The source made the active and inactive calls. The calls are words filed in the database; no cut-off is given here.

Legend:
[1] = system: Dinebra chinensis; assay: Herbicidal activity against Dinebra chinensis assessed as inhibitory rate of seedling height at 7.5 g/hm'2 relative to control; format: functional
[2] = system: Botrytis cinerea; assay: Antifungal activity against Botryotinia fuckeliana assessed as cucumber grey mould control measured after 1 day; format: functional, organism-based
[3] = system: Amaranthus tricolor; assay: Herbicidal activity against Amaranthus tricolor assessed as inhibitory rate of seedling height at 7.5 g/hm'2 relative to control; format: functional
[4] = system: Triticum aestivum; assay: Herbicidal activity against Triticum aestivum (wheat) assessed as inhibitory rate of fresh weight gain at 7.5 g/hm'2 relative to control; format: functional
[5] = system: Golovinomyces cichoracearum; assay: Antifungal activity against Golovinomyces cichoracearum assessed as cucumber powdery mildew control measured after 1 day; format: functional; design: concentration or dose not given beside the values
[6] = system: Amaranthus tricolor; assay: Herbicidal activity against Amaranthus tricolor assessed as inhibitory rate of fresh weight gain at 7.5 g/hm'2 relative to control; format: functional
[7] = system: Brassica rapa subsp. oleifera; assay: Herbicidal activity against Brassica rapa subsp. oleifera assessed as inhibitory rate of fresh weight gain at 7.5 g/hm'2 relative to control; format: functional
[8] = system: Cucumis sativus; assay: Herbicidal activity against Cucumis sativus (cucumber) assessed as inhibitory rate of seedling height at 7.5 g/hm'2 relative to control; format: functional
[9] = system: Dinebra chinensis; assay: Herbicidal activity against Dinebra chinensis assessed as inhibitory rate of fresh weight gain at 7.5 g/hm'2 relative to control; format: functional
[10] = system: Pseudoperonospora cubensis; assay: Antifungal activity against Pseudoperonospora cubensis assessed as cucumber downy mildew control measured after 1 day; format: functional, organism-based
[11] = system: Triticum aestivum; assay: Herbicidal activity against Triticum aestivum (wheat) assessed as inhibitory rate of seedling height at 7.5 g/hm'2 relative to control; format: functional
[12] = system: Brassica rapa subsp. oleifera; assay: Herbicidal activity against Brassica rapa subsp. oleifera assessed as inhibitory rate of seedling height at 7.5 g/hm'2 relative to control; format: functional
[13] = system: Cucumis sativus; assay: Herbicidal activity against Cucumis sativus (cucumber) assessed as inhibitory rate of fresh weight gain at 7.5 g/hm'2 relative to control; format: functional
[14] = system: Pyricularia grisea; assay: Antifungal activity against Magnaporthe grisea assessed as rice blast control measured after 1 day; format: functional, organism-based
[15] = system: Sorghum bicolor; assay: Herbicidal activity against Sorghum bicolor assessed as inhibitory rate of fresh weight gain at 7.5 g/hm'2 relative to control; format: functional
[16] = system: Sorghum bicolor; assay: Herbicidal activity against Sorghum bicolor assessed as inhibitory rate of seedling height at 7.5 g/hm'2 relative to control; format: functional

SMILES	inhibition (INH) [1]	Activity [2]	inhibition (INH) [3]	inhibition (INH) [4]	Activity [5]	inhibition (INH) [6]	inhibition (INH) [7]	inhibition (INH) [8]	inhibition (INH) [9]	Activity [10]	inhibition (INH) [11]	inhibition (INH) [12]	inhibition (INH) [13]	Activity [14]	inhibition (INH) [15]	inhibition (INH) [16]
O=C(/C=C/c1ccc(Cl)cc1)c1occc1O	-3.9%	inactive	37.5%	64.6%	<10%	81.2%	83.5%	36.5%	52.6%	inactive	41.8%	52.4%	68.2%	inactive		
O=C(/C=C/c1ccccc1)c1occc1O	-4.4%	inactive	18.8%	46.2%	<10%	32.6%	60.3%	33.7%	31.3%	inactive	37.2%	38.1%	1.3%	inactive	36%	55.3%
COC(=O)[C@@H](C)Oc1ccc(Oc2ncc(C(F)(F)F)cc2Cl)cc1 [HALOXYFOP-P-METHYL]	100%		2.1%	100%		21.6%	17.2%	42.1%	100%		100%	44.4%	31.5%		100%	100%
O=C(/C=C/c1ccc(F)cc1)c1occc1O	3.5%	inactive	6.3%	40.6%	<10%	24.3%	15.1%	56.8%	19%	inactive	37%	19%	17.5%	inactive		
O=C(/C=C/c1ccco1)c1occc1O	-3.2%	inactive	12.5%	49.6%	<10%	69.6%	82.1%	36.1%	56.1%	inactive	24.4%	38.1%	49.7%	inactive	12.4%	4%
O=C(/C=C/c1ccc2ccccc2c1)c1occc1O	-7.4%	inactive	37.5%	45.4%	<10%	90.6%	72.9%	41.3%	55.9%	inactive	27.1%	52.4%	44%	inactive		
O=C(/C=C/c1ccc(Cl)cc1Cl)c1occc1O	-0.7%	inactive	18.8%	63.4%	<10%	69.6%	87.2%	35.1%	57.1%	inactive	39.5%	42.9%	37.3%	inactive		
COc1ccc(/C=C/C(=O)c2occc2O)cc1	2.1%	inactive	37.5%	53.3%	<10%	54.8%	72.3%	33.3%	60.4%	inactive	35.4%	38.1%	35.3%	inactive		
O=C(/C=C/c1ccccn1)c1occc1O	6.7%	inactive	18.8%	40.9%	<10%	23.9%	31.8%	31%	37.4%	inactive	37%	52.4%	33.1%	inactive	11.3%	13.6%
Cc1ccc(/C=C/C(=O)c2occc2O)cc1	-10.1%	inactive	12.5%	53%	<10%	72.2%	45.9%	32.7%	47.8%	inactive	28.1%	33.3%	39.3%	inactive	32.3%	-3.8%
N#Cc1cccc(/C=C/C(=O)c2occc2O)c1	-12.3%	inactive	37.5%	36.1%	<10%	31.7%	-5.9%	33.3%	12.4%	inactive	30.5%	14.3%	13.7%	inactive	24%	34%
O=C(/C=C/c1cccc([N+](=O)[O-])c1)c1occc1O	1.4%	inactive	25%	52.5%	<10%	74.8%	85.9%	46.8%	63.1%	inactive	33.9%	52.4%	40.6%	inactive		
O=C(/C=C/c1ccc(Br)cc1)c1occc1O	4.2%	inactive	37.5%	64.2%	<10%	71.7%	66.7%	40.5%	66.7%	inactive	42.5%	52.4%	34.5%	inactive		
